# Where two headings read alike, the source gives them in different places.
# Legend:
# CpCDPK1 = CpCDPK1 (Cryptosporidium parvum (strain Iowa II), UniProt A3FQ16); assay: biochemical
# [1] = Cytotoxicity against CRL8155 cell line; assay type: cell-based; conditions: human, CRL8155 cells (lymphoblast, spleen)
# Cell toxicity in HepG2 = assay type: cell-based; conditions: human, HepG2 cells (hepatocellular carcinoma); Table 4
# Experimental: All compounds were assayed for inhibition of TgCDPK1 and CpCDPK1 and on the small-gatekeeper (Thr) human kinases, Src and Abl. Human cell toxicity was evaluated in two human cell lines, HepG2 (hepatocellular carcinoma) and CRL8155 (lymphoblast, spleen). hERG inhibition has been associated with long Q-T syndrome (cardiotoxicity), and the compounds were evaluated for hERG inhibitory activity.
# TgCDPK1 = TgCDPK1 (Toxoplasma gondii, UniProt Q9BJF5); assay: biochemical
# T. gondii = assay: Inhibition of T. gondii cell proliferation; assay type: cell-based; conditions: Toxoplasma gondii
# Src = Src (Homo sapiens (Human), UniProt P12931); assay: biochemical
# C. parvum = assay: Inhibition of C. parvum proliferation; assay type: cell-based; conditions: Cryptosporidium parvum, read-out: Inhibit Parasite Prolif. (EC50, μM) C. parvum
# Abl = Abl (Homo sapiens (Human), UniProt P00519); assay: biochemical
# hERG = hERG (Homo sapiens (Human), UniProt Q12809); assay: biochemical; assay type: binding
# [2] = Pharmacokinetic studies in mice; conditions: mouse, in vivo, 10 mg/kg
# Solubility at pH 6.5 = assay type: physicochemical
# [3] = system: T. gondii Type 1 RH strain tachyzoites; assay: T. gondii infection in mice; assay type: in vivo; conditions: CF-1 mice, peritoneal lavage day 8
# Source text: 1×10^5 T. gondii Type 1 RH strain tachyzoites expressing YFP were inoculated i.p. into 4-5 wk old female CF-1 mice (n=4). […] On day 8, the mice were killed, and underwent peritoneal lavage. T. gondii were enumerated via fluorescent microscopy and plotted, per mouse.
# P-gp = assay: Diffusion across the MDCK-PGP monolayer; assay type: in vitro ADME; conditions: dog, MDCK-MDR1; predicts CNS penetration
# [4] = system: 80 human protein kinases (hPKs); assay: AbbVie panel of 80 human protein kinases; assay type: biochemical; conditions: at levels up to 3 μM; tested by AbbVie
# [5] = system: 24 off-target liabilities (e.g. ion channels, G-protein receptors); assay: 24 off-target liability screen; conditions: tested by AbbVie
# [6] = Stability (comparison of compound 39 and compound 9)
# [7] = Oral availability (comparison of compound 39 and compound 9); assay type: in vivo; conditions: compared with compound 9 (1294)
# Prkcn = Prkcn (Homo sapiens (Human), UniProt O94806); assay: Kinase panel selectivity: Prkcn; assay type: biochemical
# Kdr = Kdr (Homo sapiens (Human), UniProt P35968); assay: Kinase panel selectivity: Kdr; assay type: biochemical
# C. parvum Iowa strain = assay: C. parvum infection in mice (beige/SCID mouse model); conditions: oral gavage 20 mg/kg 8 AM and 40 mg/kg 5 PM, days 5-14 after infection; each time point except Days 0 and 3; p≦0.05
# [8] = Table 1, KinaseGlo, Syntide 2 peptide substrate, read-out: CpCDPK1 IC50
# [9] = Table 4, read-out: Cell toxicity (EC50, μM) CRL 8155
# [10] = Table 1, KinaseGlo, Syntide 2 peptide substrate, read-out: TgCDPK1 IC50
# [11] = Table 3, read-out: T. gondii EC50
# [12] = Table 3, read-out: Cytotoxicity (CRL8155) EC50
# [13] = Table 4, read-out: Enzyme Inhibition (IC50, μM) Cp CDPK1
# [14] = Enzyme Inhibition (IC50, μM) SrcKD, Table 4
# [15] = Table 2, read-out: Cytotoxicity (CRL8155) EC50
# Chain of CpCDPK1 (A3FQ16 1-538): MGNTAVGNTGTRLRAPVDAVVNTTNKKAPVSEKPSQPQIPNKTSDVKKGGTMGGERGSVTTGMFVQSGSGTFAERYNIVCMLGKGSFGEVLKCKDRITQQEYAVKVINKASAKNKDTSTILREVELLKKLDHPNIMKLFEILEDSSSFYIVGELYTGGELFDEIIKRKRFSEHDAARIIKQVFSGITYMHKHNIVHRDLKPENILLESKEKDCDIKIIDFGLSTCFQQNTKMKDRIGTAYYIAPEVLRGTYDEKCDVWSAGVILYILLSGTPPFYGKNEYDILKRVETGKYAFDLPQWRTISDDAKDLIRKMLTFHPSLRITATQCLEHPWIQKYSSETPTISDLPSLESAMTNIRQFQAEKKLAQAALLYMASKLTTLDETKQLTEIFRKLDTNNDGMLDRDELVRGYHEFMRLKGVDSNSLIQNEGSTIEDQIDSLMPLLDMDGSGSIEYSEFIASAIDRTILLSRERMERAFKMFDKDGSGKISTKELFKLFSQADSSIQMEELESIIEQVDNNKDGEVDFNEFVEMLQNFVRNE
# Chain of Abl (P00519 242-493): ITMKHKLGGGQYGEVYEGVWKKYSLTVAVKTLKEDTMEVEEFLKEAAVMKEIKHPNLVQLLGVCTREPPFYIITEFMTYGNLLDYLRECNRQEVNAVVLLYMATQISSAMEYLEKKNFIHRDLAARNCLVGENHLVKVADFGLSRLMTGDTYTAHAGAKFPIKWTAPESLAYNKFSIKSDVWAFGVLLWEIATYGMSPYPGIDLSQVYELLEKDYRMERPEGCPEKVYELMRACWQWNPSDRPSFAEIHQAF
# Chain of Src (P12931 270-523): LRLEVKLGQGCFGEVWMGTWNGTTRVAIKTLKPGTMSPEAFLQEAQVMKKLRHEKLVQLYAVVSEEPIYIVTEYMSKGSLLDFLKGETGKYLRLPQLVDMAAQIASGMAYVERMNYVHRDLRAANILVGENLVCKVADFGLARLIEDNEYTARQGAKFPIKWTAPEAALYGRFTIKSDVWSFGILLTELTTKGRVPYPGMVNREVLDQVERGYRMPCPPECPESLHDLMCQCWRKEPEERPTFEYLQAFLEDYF
# Chain of TgCDPK1 (Q9BJF5 1-507): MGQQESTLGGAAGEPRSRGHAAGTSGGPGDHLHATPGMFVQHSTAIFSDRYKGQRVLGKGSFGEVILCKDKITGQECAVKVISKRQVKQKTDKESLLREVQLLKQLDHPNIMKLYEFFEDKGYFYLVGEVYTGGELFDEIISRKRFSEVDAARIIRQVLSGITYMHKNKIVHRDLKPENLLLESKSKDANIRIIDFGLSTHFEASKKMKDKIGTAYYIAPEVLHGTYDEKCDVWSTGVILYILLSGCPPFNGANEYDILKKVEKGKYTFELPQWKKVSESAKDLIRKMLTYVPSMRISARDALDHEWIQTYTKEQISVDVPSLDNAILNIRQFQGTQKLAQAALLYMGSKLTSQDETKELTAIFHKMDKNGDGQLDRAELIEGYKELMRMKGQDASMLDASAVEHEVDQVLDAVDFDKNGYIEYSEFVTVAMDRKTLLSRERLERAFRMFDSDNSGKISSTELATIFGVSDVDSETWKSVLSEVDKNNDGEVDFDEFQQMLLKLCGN
# Chain of Prkcn (O94806 whole entry, looked up, species assumed): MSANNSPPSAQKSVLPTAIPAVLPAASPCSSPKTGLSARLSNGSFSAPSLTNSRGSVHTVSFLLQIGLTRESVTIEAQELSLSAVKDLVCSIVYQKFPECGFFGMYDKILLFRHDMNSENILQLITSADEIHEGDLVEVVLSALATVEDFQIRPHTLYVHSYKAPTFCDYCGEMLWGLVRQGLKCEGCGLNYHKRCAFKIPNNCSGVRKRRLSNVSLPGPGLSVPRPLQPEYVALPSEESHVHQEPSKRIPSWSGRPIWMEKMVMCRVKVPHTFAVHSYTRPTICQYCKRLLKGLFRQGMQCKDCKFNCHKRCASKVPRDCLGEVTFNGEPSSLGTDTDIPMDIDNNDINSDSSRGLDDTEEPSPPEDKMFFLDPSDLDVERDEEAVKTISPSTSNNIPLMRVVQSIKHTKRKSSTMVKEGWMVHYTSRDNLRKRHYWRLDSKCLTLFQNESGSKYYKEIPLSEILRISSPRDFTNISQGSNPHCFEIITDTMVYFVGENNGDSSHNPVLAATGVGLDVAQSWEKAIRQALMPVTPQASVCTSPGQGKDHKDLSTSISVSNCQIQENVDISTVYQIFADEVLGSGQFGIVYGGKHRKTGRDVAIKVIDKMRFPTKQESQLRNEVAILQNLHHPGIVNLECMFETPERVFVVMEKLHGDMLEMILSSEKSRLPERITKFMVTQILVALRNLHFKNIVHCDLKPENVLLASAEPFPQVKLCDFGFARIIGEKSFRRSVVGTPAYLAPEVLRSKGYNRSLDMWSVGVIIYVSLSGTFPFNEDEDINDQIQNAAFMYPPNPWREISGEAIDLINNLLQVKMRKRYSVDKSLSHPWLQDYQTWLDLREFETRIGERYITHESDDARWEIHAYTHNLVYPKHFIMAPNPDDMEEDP
# Chain of hERG (Q12809 whole entry): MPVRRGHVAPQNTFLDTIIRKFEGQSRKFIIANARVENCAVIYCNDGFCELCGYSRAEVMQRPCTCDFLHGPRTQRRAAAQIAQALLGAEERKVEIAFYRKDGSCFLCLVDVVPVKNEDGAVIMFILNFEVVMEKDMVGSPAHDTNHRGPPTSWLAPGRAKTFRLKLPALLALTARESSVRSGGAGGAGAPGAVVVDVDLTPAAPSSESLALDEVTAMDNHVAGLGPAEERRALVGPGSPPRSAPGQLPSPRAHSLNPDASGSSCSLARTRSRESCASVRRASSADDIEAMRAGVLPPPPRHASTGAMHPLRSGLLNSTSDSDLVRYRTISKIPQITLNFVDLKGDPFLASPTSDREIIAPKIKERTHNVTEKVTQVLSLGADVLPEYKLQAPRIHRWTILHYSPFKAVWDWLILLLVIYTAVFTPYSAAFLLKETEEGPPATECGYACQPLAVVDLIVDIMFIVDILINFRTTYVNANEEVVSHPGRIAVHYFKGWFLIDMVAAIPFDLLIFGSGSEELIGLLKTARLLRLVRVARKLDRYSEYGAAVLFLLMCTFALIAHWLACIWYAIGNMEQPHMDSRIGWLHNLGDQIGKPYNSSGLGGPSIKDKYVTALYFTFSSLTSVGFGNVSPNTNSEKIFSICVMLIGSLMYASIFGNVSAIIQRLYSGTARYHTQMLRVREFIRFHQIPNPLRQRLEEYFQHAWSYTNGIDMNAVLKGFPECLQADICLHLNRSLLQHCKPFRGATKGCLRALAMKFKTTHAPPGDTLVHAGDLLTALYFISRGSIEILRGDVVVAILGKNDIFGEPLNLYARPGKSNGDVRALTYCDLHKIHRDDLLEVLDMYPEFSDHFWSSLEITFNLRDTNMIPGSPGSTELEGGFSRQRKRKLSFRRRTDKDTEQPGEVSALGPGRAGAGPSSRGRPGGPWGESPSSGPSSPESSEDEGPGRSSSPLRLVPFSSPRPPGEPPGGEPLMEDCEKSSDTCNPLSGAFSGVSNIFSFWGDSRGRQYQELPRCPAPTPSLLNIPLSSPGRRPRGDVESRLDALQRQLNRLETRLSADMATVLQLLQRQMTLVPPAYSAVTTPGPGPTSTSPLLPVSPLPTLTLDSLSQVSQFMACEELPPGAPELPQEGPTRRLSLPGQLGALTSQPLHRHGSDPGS
# Chain of Kdr (P35968 20-1356, species assumed): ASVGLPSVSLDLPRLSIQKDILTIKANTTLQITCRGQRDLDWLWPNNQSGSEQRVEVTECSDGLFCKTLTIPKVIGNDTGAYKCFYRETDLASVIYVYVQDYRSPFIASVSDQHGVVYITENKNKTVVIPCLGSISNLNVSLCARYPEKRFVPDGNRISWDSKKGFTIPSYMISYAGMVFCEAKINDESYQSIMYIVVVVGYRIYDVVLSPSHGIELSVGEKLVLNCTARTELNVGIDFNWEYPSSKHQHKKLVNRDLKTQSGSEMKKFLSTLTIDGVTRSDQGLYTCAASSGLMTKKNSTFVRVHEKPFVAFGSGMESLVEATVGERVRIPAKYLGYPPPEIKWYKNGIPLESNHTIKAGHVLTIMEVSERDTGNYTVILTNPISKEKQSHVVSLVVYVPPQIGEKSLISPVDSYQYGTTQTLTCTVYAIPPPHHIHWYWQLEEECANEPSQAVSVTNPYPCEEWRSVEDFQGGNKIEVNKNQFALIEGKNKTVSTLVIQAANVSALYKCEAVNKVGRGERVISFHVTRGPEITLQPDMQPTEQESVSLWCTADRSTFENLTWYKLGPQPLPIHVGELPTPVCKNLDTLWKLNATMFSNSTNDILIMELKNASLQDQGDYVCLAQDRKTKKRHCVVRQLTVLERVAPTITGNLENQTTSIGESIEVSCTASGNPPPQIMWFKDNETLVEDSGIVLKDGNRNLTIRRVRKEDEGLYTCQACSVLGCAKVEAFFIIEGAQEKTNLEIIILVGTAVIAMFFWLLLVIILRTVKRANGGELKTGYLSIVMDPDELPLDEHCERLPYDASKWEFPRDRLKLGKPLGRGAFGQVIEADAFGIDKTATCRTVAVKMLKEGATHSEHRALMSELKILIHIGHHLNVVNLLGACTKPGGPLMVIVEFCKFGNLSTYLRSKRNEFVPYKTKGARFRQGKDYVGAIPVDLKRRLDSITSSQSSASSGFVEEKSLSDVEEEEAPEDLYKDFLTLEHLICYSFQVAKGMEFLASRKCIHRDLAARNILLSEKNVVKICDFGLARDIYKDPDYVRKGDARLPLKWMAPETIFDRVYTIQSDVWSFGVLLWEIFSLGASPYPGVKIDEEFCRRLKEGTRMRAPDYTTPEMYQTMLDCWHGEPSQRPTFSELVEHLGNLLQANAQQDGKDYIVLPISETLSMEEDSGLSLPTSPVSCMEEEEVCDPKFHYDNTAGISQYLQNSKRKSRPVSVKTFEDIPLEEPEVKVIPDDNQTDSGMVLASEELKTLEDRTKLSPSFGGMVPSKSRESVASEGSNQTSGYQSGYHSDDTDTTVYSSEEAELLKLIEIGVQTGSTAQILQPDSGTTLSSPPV
SMILES,IC50 (CpCDPK1; [8]),"EC50 [1, 9]",EC50 (Cell toxicity in HepG2),IC50 (TgCDPK1; [10]),EC50 (T. gondii; [11]),"EC50 [1, 12]",IC50 (Src),further results
"CCOc1ccc2cc(-c3nn(C(C)C)c(N)c3C(N)=O)cnc2c1 [Compound 1572, 5-amino-3-(7-ethoxyquinolin-3-yl)-1-isopropyl-1H-pyrazole-4-carboxamide]",0.005 µM,> 40 µM,> 40 µM,,,,,
"NC(=O)c1c(-c2ccc3nc(OC4CCC4)ccc3c2)nn(C2CCC2)c1N [Compound 1656, 5-amino-3-(2-cyclobutoxyquinolin-6-yl)-1-cyclobutyl-1H-pyrazole-4-carboxamide]",,,,0.007 µM,0.069 µM,> 40 µM,> 10 µM,
"CCOc1ccc2cc(-c3nn(C(C)(C)C)c(N)c3C(N)=O)ccc2c1 [Compound 3, 5-amino-1-tert-butyl-3-(6-ethoxynaphthalen-2-yl)-1H-pyrazole-4-carboxamide]",,,> 40 µM,,,,,EC50 (C. parvum): 0.05 µM
"CC(C)(CO)Cn1nc(-c2cnc3cc(OC4CCC4)ccc3c2)c(C(N)=O)c1N [Compound 1644, 5-amino-3-(7-cyclobutoxyquinolin-3-yl)-1-(3-hydroxy-2,2-dimethylpropyl)-1H-pyrazole-4-carboxamide]",0.005 µM,,,0.012 µM,0.77 µM,> 40 µM,> 10 µM,
"NC(=O)c1c(-c2ccc3nc(OC4CCC4)ccc3c2)nn(C2CCCCC2)c1N [Compound 1646, 5-amino-3-(2-cyclobutoxyquinolin-6-yl)-1-cyclohexyl-1H-pyrazole-4-carboxamide]",0.013 µM,,,0.016 µM,0.31 µM,> 40 µM,> 10 µM,
"NC(=O)c1c(-c2cnc3cc(OC4CCC4)ccc3c2)nn(C2CCC2)c1N [Compound 1657, 5-amino-3-(7-cyclobutoxyquinolin-3-yl)-1-cyclobutyl-1H-pyrazole-4-carboxamide]",,,,0.012 µM,0.69 µM,> 40 µM,> 10 µM,
"NC(=O)c1c(-c2ccc3nc(OC4CCC4)ccc3c2)nn(C2CCCC2)c1N [Compound 1653, 5-amino-3-(2-cyclobutoxyquinolin-6-yl)-1-cyclopentyl-1H-pyrazole-4-carboxamide]",0.006 µM,,,0.012 µM,0.21 µM,> 40 µM,> 10 µM,
"NC(=O)c1c(-c2cnc3cc(OC4CCC4)ccc3c2)nn(C2CCCC2)c1N [Compound 1658, 5-amino-3-(7-cyclobutoxyquinolin-3-yl)-1-cyclopentyl-1H-pyrazole-4-carboxamide]",0.004 µM,,,0.012 µM,0.4 µM,> 40 µM,> 10 µM,
"COc1ccc2cc(-c3nn(C(C)(C)C)c(N)c3C(N)=O)cnc2c1 [Compound 1543, 5-amino-1-tert-butyl-3-(7-methoxyquinolin-3-yl)-1H-pyrazole-4-carboxamide]",0.003 µM,> 40 µM,> 40 µM,,,> 40 µM,,"IC50 (CpCDPK1; [13]): 0.003 µM; IC50 (Src; [14]): > 10 µM; IC50 (Src; Src IC50 (μM), Table 3): > 30 µM; IC50 (Abl): > 10000 nM"
"COc1ccc2cc(-c3nn(C(C)(C)C)c(N)c3C(N)=O)ccc2c1 [Compound 25, 5-amino-1-(tert-butyl)-3-(6-methoxynaphthalen-2-yl)-1H-pyrazole-4-carboxamide]",,> 40 µM,> 40 µM,,,,,"EC50 (C. parvum): 0.1 µM; EC50 [1, 15]: > 40 µM; IC50 (hERG): > 10000 nM; AUC [2]: 5.94 µM·h; Cmax [2]: 3.1 µM; Tmax [2]: 30 min"
"CCCOc1ccc2cc(-c3nn(C(C)(C)C)c(N)c3C(N)=O)cnc2c1 [Compound 1566, 5-amino-1-tert-butyl-3-(7-propoxyquinolin-3-yl)-1H-pyrazole-4-carboxamide]",,16 µM,> 40 µM,,,> 40 µM,,"IC50 (Src; [14]): > 10 µM; IC50 (Src; Src IC50 (μM), Table 3): > 10 µM; IC50 (Abl): > 10000 nM"
"CCOc1ccc2cc(-c3nn(C4CCCCC4)c(N)c3C(N)=O)cnc2c1 [Compound 1571, 5-amino-1-cyclohexyl-3-(7-ethoxyquinolin-3-yl)-1H-pyrazole-4-carboxamide]",0.005 µM,> 40 µM,> 40 µM,,,,,"IC50 (Src; [14]): 10 µM; IC50 (Src; Src IC50 (μM), Table 3): > 10 µM; IC50 (Abl): > 10000 nM"
"NC(=O)c1c(-c2cnc3cc(OC4CCC4)ccc3c2)nn(C2CCCCC2)c1N [Compound 1647, 5-amino-3-(7-cyclobutoxyquinolin-3-yl)-1-cyclohexyl-1H-pyrazole-4-carboxamide]",0.008 µM,,,0.019 µM,1.14 µM,> 40 µM,> 10 µM,
"CCCOc1ccc2cc(-c3nn(C(C)(C)C)c(N)c3C(N)=O)ccc2c1 [Compound 26, 5-amino-1-(tert-butyl)-3-(6-propoxynaphthalen-2-yl)-1H-pyrazole-4-carboxamide]",0.01 µM,38 µM,> 40 µM,,,,7.8 µM,"IC50 (TgCDPK1; read-out: Enzyme Inhibition (IC50, μM) Tg CDPK1): 0.007 µM; IC50 (TgCDPK1; read-out: TgCDPK1 IC50): 0.007 µM; IC50 (CpCDPK1; [13]): 0.01 µM; EC50 (T. gondii; Table 4, read-out: Inhibit Parasite Prolif. (EC50, μM) T. gondii): 0.37 µM; IC50 (Abl): > 10000 nM"
"CCOc1ccc2cc(-c3nn(C(C)(C)C)c(N)c3C(N)=O)cnc2c1 [Compound 39, 5-amino-1-(tert-butyl)-3-(7-ethoxyquinolin-3-yl)-1H-pyrazole-4-carboxamide]",,> 40 µM,> 40 µM,,,> 30 µM,,"EC50 (C. parvum; Table 4): 0.05 µM; EC50 [1, 15]: > 30 µM; hERG inhibitory activity (in words) (hERG): no hERG inhibitory activity; solubility (in words) (Solubility at pH 6.5): good solubility; mean parasite burden decreased ([3]; oral gavage 5/10 mg/kg [AM/PM] for 5 d): 69%; mean parasite burden decreased ([3]; oral gavage 20/40 mg/kg [AM/PM] for 5 d): 93%; Papp (P-gp): 56.3 ×10⁻⁶ cm/s; inhibition of human protein kinases (panel of 80 hPKs) [4]: No hPKs were inhibited; signal in 24 off-target liability screen [5]: no signal was detected; stability (in words) [6]: good stability; oral availability (in words) [7]: higher oral availability; IC50 (Prkcn): 1110 nM; Ki (Prkcn): 427 nM; IC50 (Kdr): 2460 nM; Ki (Kdr): 569 nM; oocysts shed in mouse stool, treated vs vehicle (C. parvum Iowa strain): the difference was significant"

# — patent US9518026B2, “5-aminopyrazole-4-carboxamide inhibitors of CDPK1 from T. gondii and C. parvum” (UNIVERSITY OF WASHINGTON THROUGH ITS CENTER FOR …, priority 2013, dated 2016)
